What was measured:
Experiment in all cases: relative viability (nuclei count vs DMSO), 5 days (fraction); higher = more cells survive
Nelarabine + AZD7762 = compound: COc1nc(N)nc2c1ncn2[C@@H]1O[C@H](CO)[C@@H](O)[C@@H]1O [Nelarabine] + NC(=O)Nc1cc(-c2cccc(F)c2)sc1C(=O)N[C@H]1CCCNC1 [AZD7762] (partner 0.2 µM)
Summary of the method: (§1)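 After 5 days of treatment, lung cancer cells in 1536-well plates were fixed and stained in a single step (final 0.05% Triton X-100, 1% formaldehyde, 1 ug/ml Hoechst) and their nuclei counted on 4× images. Treatment had been applied by pin tool the day after seeding as one drug alone or as a fixed anchor-drug dose with five library-drug doses (not always all listed) in √10 steps. Relative viability is the nuclei count of treated wells divided by that of vehicle wells, and values are medians of duplicate plates.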

Nelarabine + Navitoclax = compound: COc1nc(N)nc2c1ncn2[C@@H]1O[C@H](CO)[C@@H](O)[C@@H]1O [Nelarabine] + CC1(C)CCC(c2ccc(Cl)cc2)=C(CN2CCN(c3ccc(C(=O)NS(=O)(=O)c4ccc(N[C@H](CCN5CCOCC5)CSc5ccccc5)c(S(=O)(=O)C(F)(F)F)c4)cc3)CC2)C1 [Navitoclax] (partner 0.5 µM)
Summary of the method: as §1

Nelarabine + Luminespib = compound: COc1nc(N)nc2c1ncn2[C@@H]1O[C@H](CO)[C@@H](O)[C@@H]1O [Nelarabine] + CCNC(=O)c1noc(-c2cc(C(C)C)c(O)cc2O)c1-c1ccc(CN2CCOCC2)cc1 [Luminespib] (partner 0.01 µM)
Summary of the method: as §1

Nelarabine + Dasatinib = compound: COc1nc(N)nc2c1ncn2[C@@H]1O[C@H](CO)[C@@H](O)[C@@H]1O [Nelarabine] + Cc1nc(Nc2ncc(C(=O)Nc3c(C)cccc3Cl)s2)cc(N2CCN(CCO)CC2)n1 [Dasatinib] (partner 0.075 µM)
Summary of the method: as §1

Row | Cell Line | relative viability (Nelarabine + AZD7762; first compound 0.01 µM) | relative viability (Nelarabine + AZD7762; first compound 0.03162 µM) | relative viability (Nelarabine + AZD7762; first compound 0.1 µM) | relative viability (Nelarabine + AZD7762; first compound 0.3162 µM) | relative viability (Nelarabine + AZD7762; first compound 1 µM) | relative viability (Nelarabine + Navitoclax; first compound 0.01 µM) | relative viability (Nelarabine + Navitoclax; first compound 0.03162 µM) | relative viability (Nelarabine + Navitoclax; first compound 0.1 µM) | relative viability (Nelarabine + Navitoclax; first compound 0.3162 µM) | relative viability (Nelarabine + Navitoclax; first compound 1 µM) | relative viability (Nelarabine + Luminespib; first compound 0.01 µM) | relative viability (Nelarabine + Luminespib; first compound 0.03162 µM) | relative viability (Nelarabine + Luminespib; first compound 0.1 µM) | relative viability (Nelarabine + Luminespib; first compound 0.3162 µM) | relative viability (Nelarabine + Luminespib; first compound 1 µM) | relative viability (Nelarabine + Dasatinib; first compound 0.01 µM) | relative viability (Nelarabine + Dasatinib; first compound 0.03162 µM) | relative viability (Nelarabine + Dasatinib; first compound 0.1 µM) | relative viability (Nelarabine + Dasatinib; first compound 0.3162 µM) | relative viability (Nelarabine + Dasatinib; first compound 1 µM)
1 | LC-2-ad | 1.01 | 0.96 | 0.859 | 0.908 | 0.856 | 0.619 | 0.384 | 0.519 | 0.434 | 0.452 | 1.1 | 1.09 | 0.932 | 1.08 | 0.916 | 0.556 | 0.647 | 0.463 | 0.529 | 0.611
2 | NCI-H2085 | 1.11 | 1.04 | 0.996 | 1.12 | 0.987 | 1.08 | 1.08 | 1.18 | 1.18 | 1.18 | 0.498 | 0.48 | 0.427 | 0.518 | 0.434 | 0.231 | 0.26 | 0.177 | 0.192 | 0.199
3 | H3255 | 0.835 | 0.933 | 0.938 | 0.854 | 0.95 | 0.59 | 0.486 | 0.625 | 0.6 | 0.622 |  | 0.889 | 1 | 0.853 | 0.737 |  | 0.427 | 0.367 | 0.345 | 0.309
4 | NCI-H1793 | 0.557 |  | 0.319 | 0.748 | 0.436 | 0.46 | 0.552 | 0.433 | 0.47 | 0.385 | 0.421 | 0.156 | 0.201 | 0.251 | 0.191 | 0.458 | 0.398 | 0.416 | 0.426 | 0.409
5 | NCI-H441 | 1.33 | 1.2 | 1.43 | 1.14 | 1.23 | 1.13 | 0.707 | 0.912 | 0.5 | 0.49 | 0.306 | 0.372 | 0.286 | 0.294 | 0.268 | 0.598 | 0.516 | 0.43 | 0.596 | 0.784
6 | NCI-H838 | 1.04 | 0.847 | 0.955 | 1 | 0.957 | 1.48 | 1.13 | 1.22 | 1.26 | 1.25 | 0.316 | 0.321 | 0.31 | 0.257 | 0.221 | 0.276 | 0.217 | 0.225 | 0.321 | 0.374
7 | NCI-H460 | 0.79 | 0.626 | 0.616 | 0.558 | 0.323 |  | 1.68 | 1.42 | 1.37 | 1.17 | 0.0293 | 0.0328 | 0.0352 | 0.0376 | 0.0317 | 0.66 | 0.601 | 0.452 | 0.64 | 0.495
8 | PC-14 | 0.382 | 0.319 | 0.447 | 0.417 | 0.304 | 1.09 | 1.11 | 1.05 | 1.05 | 1.03 | 0.145 | 0.177 | 0.118 | 0.178 | 0.151 | 0.253 | 0.233 | 0.131 | 0.304 | 0.315
9 | LXF-289 | 1.22 | 1.14 | 1.02 | 1.17 | 1 | 1.12 | 0.882 | 0.98 | 1 | 0.908 | 0.792 | 0.655 | 0.659 | 0.832 | 0.578 | 0.156 | 0.218 | 0.146 | 0.202 | 0.196
10 | A-427 | 0.781 | 0.62 | 0.599 | 0.62 | 0.572 | 1.05 | 1.02 | 0.916 | 0.897 | 0.912 | 0.96 | 0.982 | 0.721 | 0.964 | 0.983 | 0.721 | 0.662 | 0.753 | 0.736 | 0.789
11 | LOU-NH91 | 0.868 | 0.69 | 0.78 | 0.732 | 0.69 | 0.786 | 0.588 | 0.616 | 0.632 | 0.69 | 0.392 | 0.45 | 0.354 | 0.346 | 0.356 | 0.628 | 0.591 | 0.436 | 0.585 | 0.605
12 | RERF-LC-KJ | 0.993 | 1.11 | 1.02 | 1.15 | 1.08 | 0.859 | 1.12 | 0.901 | 1.08 | 0.783 | 1.41 | 1.31 | 1.34 | 1.27 | 1.31 | 0.824 | 0.884 | 0.716 | 0.808 | 0.761
13 | NCI-H1666 | 0.844 | 0.877 | 0.819 | 0.84 | 0.795 | 1.08 | 1.08 | 0.807 | 1.07 | 0.937 | 0.991 | 0.962 | 0.898 | 1 | 1 | 0.835 | 0.855 | 0.719 | 0.878 | 0.934
14 | NCI-H322M | 0.559 | 0.553 | 0.522 | 0.595 | 0.507 | 1.39 | 1.35 | 1.3 | 1.27 | 1.17 | 0.917 | 0.84 | 0.79 | 0.834 | 0.967 | 0.268 | 0.252 | 0.231 | 0.273 | 0.246
15 | NCI-H1792 | 0.854 | 0.69 | 1.1 | 0.68 | 0.6 | 0.518 |  | 0.931 | 0.685 | 0.396 | 0.406 | 0.537 | 0.451 | 0.425 | 0.55 |  | 0.876 | 0.627 | 0.95 | 0.846

— the supplement of paper PMC10307832
